Test results published in publication PMC11587516 (ACS Chemical Neuroscience, 2024).
Positions count from the first letter of the chain named. pIC50: −log10 of the molar value.

Tests used:
Assay type in all cases: cell-based
[1] = tested on: normal human astrocytes (NHA); experiment: WST-1 viability and proliferation assay on normal human astrocytes; settings: 1–100 μM in culture medium; 24 and 48 h
Procedure: Taking into account the presence of BGT1 and GAT3 transporters in astrocytes, we studied the effect of compound 9 on astrocyte viability, proliferation, and homeostasis. Normal human astrocytes (NHA) were treated with 1–100 μM compound 9 in a culture medium. The WST-1 assay was used to determine the number of metabolically active cells after 24 and 48 h of incubation. […] In the next step, a higher concentration (500 μM) of the compound and a longer incubation time (72 h) were applied, and the cells were examined by phase-contrast microscopy. […] Considering the results shown in Figure 6, compound 9 was not cytotoxic toward human astrocytes under in vitro culture conditions.
Gibco Human Astrocytes (Thermo Fisher Scientific) were maintained in a humidified 5% CO2 incubator at 37 °C. The cells were cultured in Gibco Astrocyte Medium (DMEM with GlutaMAX, N-2 Supplement, and OneShot Fetal Bovine Serum) supplemented with penicillin G (100 U/mL), neomycin (10 μg/mL), and amphotericin B (0.25 μg/mL).
The effect of compound 9 on cell viability and cell proliferation was evaluated using a WST-1 assay (Roche GmbH, Mannheim, Germany) based on the cleavage of the WST-1 reagent into formazan by mitochondrial dehydrogenases in metabolically active (viable) cells. […] The absorbance was measured at 440 and 650 nm using a microplate reader Infinite 200 PRO (TECAN).

[2] = tested on: normal human astrocytes (NHA); experiment: Confocal imaging of astrocyte morphology after incubation in PBS (non-GABA conditions); settings: 500 μM in PBS, non-GABA environment; 72 h
Procedure: To this end, we tested whether blocking the transport of GABA under experimental non-GABA extracellular conditions may impair the homeostasis of these cells. […] Afterward, the cells were stained to visualize actin filaments using confocal microscopy. […] Nevertheless, further kinetic studies are necessary to verify this hypothesis.
NHA was grown on a coverslip in a 35 mm culture dish. After treatment, the cells were fixed (4% paraformaldehyde) and permeabilized (0.1% Triton X-100). Then, the samples were stained with Phalloidin-Atto 565 (Sigma-Aldrich, Inc.) according to the manufacturer’s protocol. Laser confocal microscope Nikon Eclipse Ti-E A1R-Si and Nikon NIS Elements AR software were used for cell imaging.

[3] = biological target: T1, hBGT1 E52A+Q299L (Homo sapiens, UniProt P48065, E52A/Q299L); experiment: [3H]GABA uptake assay, hBGT1 double mutant E52A+Q299L in tsA201 cells
T1 construct: host or cells: tsA201 cells (transformed HEK293), transient expression
T1 sequence (P48065 1-614 E52A/Q299L): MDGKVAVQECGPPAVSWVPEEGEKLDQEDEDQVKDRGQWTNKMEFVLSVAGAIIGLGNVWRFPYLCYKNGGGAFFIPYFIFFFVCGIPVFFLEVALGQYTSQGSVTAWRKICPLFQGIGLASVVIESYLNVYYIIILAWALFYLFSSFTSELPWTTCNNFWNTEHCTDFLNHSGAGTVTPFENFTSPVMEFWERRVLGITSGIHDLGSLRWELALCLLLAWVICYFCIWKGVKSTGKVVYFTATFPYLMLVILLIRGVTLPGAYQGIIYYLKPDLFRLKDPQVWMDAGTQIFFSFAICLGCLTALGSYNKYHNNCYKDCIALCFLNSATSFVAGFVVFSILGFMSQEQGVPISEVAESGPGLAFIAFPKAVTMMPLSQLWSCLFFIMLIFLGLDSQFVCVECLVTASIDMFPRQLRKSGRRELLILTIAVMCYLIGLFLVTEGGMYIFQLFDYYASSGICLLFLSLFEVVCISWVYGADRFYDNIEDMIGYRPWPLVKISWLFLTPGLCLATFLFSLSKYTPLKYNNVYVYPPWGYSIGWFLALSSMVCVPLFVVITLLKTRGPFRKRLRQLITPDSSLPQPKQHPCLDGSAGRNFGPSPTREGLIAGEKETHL
Procedure: To validate the molecular modeling, particularly the crucial interactions with the Glu52 and Gln299 residues, the activity of compound 9 was tested on the following hBGT1 mutants: E52A, E52Y, Q299L, and the double mutant E52A+Q299L (Figure 5 and Table 1).[14]
(§1) The CHO cells were placed in 96-well plates (approximately 50,000 cells/well) for about 24 h before the experiment. […] After incubation, cells were washed 3 times with 100 μL/well ice-cold assay buffer, 150 μL/well MicroScint20 (PerkinElmer) was subsequently added before the plate was shaken for at least 1 h. The radioactivity of each well of the plate was measured on a TopCount NXT scintillation counter. […] Data presented are the pooled data of at least three independent experiments with three technical replicates if not stated otherwise in figure legends. Concentration–response curves were fitted by nonlinear regression to the sigmoidal concentration–response model with GraphPad Prism v 9.0.
The tsA201 cell line (a transformed HEK293 cell line) has been described previously and was cultured accordingly.[20] The tsA201 cells used for transient expression of hBGT1 mutants were transfected with DNA constructs (8 μg per 10 cm plate) using 40 μL of PolyFect transfection reagent according to the manufacturer’s protocol (Qiagen). […]

[4] = biological target: T2, hBGT1 (Homo sapiens, UniProt P48065); experiment: [3H]GABA uptake assay, CHO cells stably expressing hBGT1
T2 construct: expressed in transfected cells
T2 sequence (P48065 1-614): T1 sequence (P48065 1-614 E52A/Q299L) with A52E, L299Q
Procedure: All selected compounds were tested for their ability to inhibit human BGT1 (hBGT1) function.
as §1

Q: For `NC12CC(C(=O)O)(C1)C2` [Compound 9], which “effect on astrocyte survival and proliferation (WST-1)” value [1] is on record?
A: no effect on astrocyte survival and proliferation

Q: And the “astrocyte morphology (actin staining)” value [2]?
A: cell shrinkage and a loss of cell-to-cell contact

Q: And the pIC50 [3]?
A: < 3.00

Q: And the “activity at mutant compared with wild type hBGT1” value ([3]; E52A+Q299L vs wt)?
A: no activity

Q: And the pIC50 [4]?
A: 4.86

Q: What about the inhibition at 100 µM ([4]; CHO, read-out: inhibition of [3H]GABA uptake) of the same compound?
A: 81%

Q: What about the “preference for hBGT1 over hGAT3” value ([4]; ratio of IC50 values) of the same compound?
A: over 4 fold
